According to patent US6284754A, “Pharmaceutical compositions containing 1-oleylazacycloheptan-2-one as enhancing agent of transport across biological membranes” (Schwarz Pharma AG, priority 1992, dated 2001):

Assays:
human dermal fibroblasts = assay: Collagen contraction test (in vitro skin cell toxicity screening); assay type: cell-based; settings: for IC50: Fibroblast, collagen sheets containing human dermal fibroblasts, read-out: IC50 (concentration at which shrinkage is 50% of the control); for toxicity (in words): compared with other azones
Description: Skin toxicity tests were performed using the so-called collagen contraction test (Ponec et al. Journal of Pharmaceutical Sciences Vol. 78, No. 9, September 1989 and Vol. 79, No. 4, April 1990). […] The concentration of the agent, at which the shrinkage is 50% of the control, is taken as the IC50, the "50% inhibition level".

[1] = sole anti-inflammatory agent, topical on human or animal skin, about 10 to 100%; cited from earlier work
[2] = Skin transport kinetics: nitroglycerin penetration through stratum corneum pretreated with 1-alkylazacycloheptan-2-ones; assay type: in vitro ADME, human; settings: compared with other 1-alkylazacycloheptan-2-ones
Description: Human stratum corneum samples (18 mm in diameter) were obtained from fresh human skin (abdomen) by trypsinization. The stratum corneum samples were firstly prehydrated at 95% relative humidity (RH) over a saturated disodium hydrogen phosphate solution, then either submerged for 24 hours at 34° C. with 200 microliter of a 10% solution of an alkyl-aza-cycloheptan-one in propylene glycol by topical application, or directly used for a diffusion study.
The stratum corneum samples were subsequently sandwiched between silastic sheetings (127 micrometer thick silicone membranes, Dow Corning) which have been proven not to control the transport rate of the model drug used in the study, nitroglycerin. The thus obtained sandwiches were clamped in two-chamber flow-through diffusion cells and subjected to 24 hours diffusion experiments. The donor compartment having a volume of 16μl was flushed with a 0.05% nitroglycerin solution at a pumping rate of 35 ml/hr. […] Fractions of the acceptor fluid were collected at 1 hour intervals, and nitroglycerin was detected using a reversed phase HPLC procedure (chrom-sphere C18 100×30 mm column eluted at 22° C. (methanol:water=1:1) at a 1.1 ml/min flow rate (Spectroflow 400, Kratos.). The absorbance at 201 nm of the effluent was monitored on Waters 450 var. wavelength detector).

[3] = Differential thermal analysis (DTA) of pretreated stratum corneum; set-up: species or system human; settings: 24 h pretreatment in enhancer solution
Description: For differential thermal analysis human stratum corneum samples were pretreated (after prehydration) by submersion in the in test 1 described enhancer solutions for 24 hours, using untreated prehydrated stratum corneum samples as controls. Differential thermal analysis of ca. 20 mg samples was then performed on a differential scanning calorimeter (Maple).

[4] = Freeze-fracture electron microscopy of pretreated stratum corneum; settings: 24 h pretreatment with solution in propylene glycol
Description: For freeze-fracture electron microscopy stratum corneum samples were pretreated during 24 hours with solutions of azacycloheptanones in propylene glycol by applying about 200 microliter per cm^2 of the solution on the apical surface. Samples were then snapfrozen in melting nitrogen (method according to Umrath, J. Microsc. 101: 103 (1974)), cross-fractured (Holman et al., J. Invest. Dermatol, 94: 332 (1990) )in a Balzers Freeze Fracture apparatus (Balzers 400 BAF) at high vacuum. The fracture surfaces were then shadowed with Pt and overcast with a layer of carbon. Upon thawing, the samples were cleaned to obtain the surface replicas. These were scooped up on copper grids and examined in a transmission electron microscope (Philips 401, operated at 80 kV).

Compound | IC50 (human dermal fibroblasts) [µM] | anti-inflammatory action, topical (in words) [1] | enhancement of nitroglycerin transport / percutaneous absorption (in words) [2] | enhancement of nitroglycerin transport / percutaneous absorption (in words) ([2]; listed as oleyl derivative) | influence on gel-liquid transition temperature and transition enthalpy (in words) [3] | transition enthalpy of the intercellular lipids (gel-liquid transition) ([3]; control 7 J.g-1) [J/g] | electron microscopic findings in stratum corneum (in words) [4] | toxicity (in words) (human dermal fibroblasts; listed as 1-oleyl-azacyclo-heptan-2-one) | toxicity (in words) (human dermal fibroblasts; listed as 1-oleylazacycloheptan-2-one) | toxicity (in words) (human dermal fibroblasts; listed as oleyl azone)
CCCCCCCCCCCCN1CCCCCC1=O [C12, 1-dodecylazacycloheptan-2-one, reference compound] | 240 | capable of temporarily reducing the signs and symptoms of inflammation | – | – | – | – | – | – | – | –
CCCCCCCC/C=C\CCCCCCCCN1CCCCCC1=O [C18, 1-oleylazacycloheptan-2-one] | 800 | – | more potent enhancer for percutaneous absorption than the 1-alkylazacycloheptan-2-ones according to the prior art | by far the most potent enhancer with respect to nitroglycerin transport | strongly influences both the gel-liquid transition temperature of the intercellular lipids, and the corresponding transition enthalpy | 3.3 | penetrates deeply into the stratum corneum and induces the separation of a non-lamellar phase | moderately toxic | less toxic than the 1-dodecylazacycloheptan-2-one | almost the least toxic azone among the effective enhancers (from C10 up to C18), and less toxic than C12 azone
